Data reported in US12371454B2, “Cyclic peptide compound having Kras inhibitory action” (priority 2019, dated 2025).
Starred links: 1 amine or outer side, 2 acyl side, 3 side chain; linkers in the order of their positions; H or OH if unused. Positions of bridges follow the written chain, without caps; N, C: chain ends. Non-standard residues stand in square brackets, D forms with d. Residues, ends and D or L forms follow the SMILES beside them. *: point of attachment. hPhe(3-Cl-4-CF3) = N[C@@H](CCc1ccc(C(F)(F)F)c(Cl)c1)C(=O)O; NMePhe(2-CF3) = CN[C@@H](Cc1ccccc1C(F)(F)F)C(=O)O; NMePhe(4-Cl) = CN[C@@H](Cc1ccc(Cl)cc1)C(=O)O; NMePhe(4-F) = CN[C@@H](Cc1ccc(F)cc1)C(=O)O; NMedβ3hAla = C[C@H](CC(=O)[*:2])N(C)[*:1]; NMeGly(cPent) = CN[C@H](C(=O)O)C1CCCC1; Phe(3-I) = N[C@@H](Cc1cccc(I)c1)C(=O)O; NMeAla(cPr) = CN[C@@H](CC1CC1)C(=O)O; NMeCha = CN[C@@H](CC1CCCCC1)C(=O)O; NMeChg = CN[C@H](C(=O)O)C1CCCCC1; NMeI = CC[C@H](C)[C@H](NC)C(=O)O; Gly(cBu) = N[C@H](C(=O)O)C1CCC1; NMeD = CN[C@@H](CC(=O)O)C(=O)O; NMeL = CN[C@@H](CC(C)C)C(=O)O; NMeV = CN[C@H](C(=O)O)C(C)C; Ac6c = NC1(C(=O)O)CCCCC1; Morpholide = C1CN(*)CCO1; NMeA = CN[C@@H](C)C(=O)O; Nle = CCCC[C@H](N)C(=O)O; Piperidide = C1CCN(*)CC1; Ac5c = NC1(C(=O)O)CCCC1; Aze = O=C(O)[C@@H]1CCN1; Sar = CNCC(=O)O

How the values were obtained:
[1] = target: T1, Kras and SOS1 (biotin-tagged human Kras loaded with GDP, His-tagged human SOS1) (Homo sapiens, UniProt P01116, G12D); assay: Protein-protein interaction inhibition between Kras and SOS1 (KrasGl2D-SOS PPI) using AlphaScreen; type: binding; settings: AlphaScreen; biotin-tagged human Kras loaded with GDP, His-tagged human SOS1; read-out: KRAS G12D-SOS PPI IC50
T1 construct: made in house; host or cells: E. coli (stated for Kras only)
T1 sequence (P01116 1-188 isoform P01116-2 G12D): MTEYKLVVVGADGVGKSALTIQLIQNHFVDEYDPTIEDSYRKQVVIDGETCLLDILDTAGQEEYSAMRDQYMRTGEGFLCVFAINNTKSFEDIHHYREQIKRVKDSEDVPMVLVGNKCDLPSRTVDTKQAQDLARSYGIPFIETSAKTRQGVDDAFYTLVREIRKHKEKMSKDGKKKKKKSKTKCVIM
In short: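 Energy transfer from nickel-chelate donor beads bound to His-SOS1 to streptavidin acceptor beads bound to biotin-Kras, expressed in E. coli and loaded with GDP after purification, was monitored. Donors were excited at 680 nm; singlet oxygen reaching acceptors gave emission read at 520-620 nm.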

[2] = test system: Human pancreatic cancer cell line AsPC-1; assay: Measurement of AsPC-1 cell growth inhibition (AsPC-1 CGI); type: cell-based; settings: 96 h
In short: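 AsPC-1 cells in 15% FBS RPMI-1640 were exposed to test compound for 96 hours at 37° C, with CellTiter-Glo as endpoint.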

| SMILES | IC50 [1] [nM] | IC50 [2] [nM] |
| --- | --- | --- |
| CC[C@H](C)[C@@H]1NC(=O)[C@H](CC(C)C)N(C)C(=O)C[C@@H](C)N(C)C(=O)[C@H](C2CCCC2)N(C)C(=O)C2(CCCC2)NC(=O)[C@@H]2CCCN2C(=O)[C@H](CCc2ccc(C(F)(F)F)c(Cl)c2)NC(=O)CN(C)C(=O)[C@H](CC2CCCCC2)N(C)C(=O)CN(C)C(=O)CN(C)C1=O [Compound 420] (cyclo([Ac5c][NMeGly(cPent)][NMedβ3hAla][NMeL]I[Sar][Sar][NMeCha][Sar][hPhe(3-Cl-4-CF3)]P)) | 3.4 | 50 to 100 |
| CC[C@H](C)[C@@H]1NC(=O)[C@H](CC(C)C)N(C)C(=O)C[C@@H](C(=O)N2CCCCC2)N(C)C(=O)[C@H](C(C)C)N(C)C(=O)C2(CCCC2)NC(=O)[C@@H]2CCCN2C(=O)[C@H](CCc2ccc(C(F)(F)F)c(Cl)c2)NC(=O)CN(C)C(=O)[C@H]([C@@H](C)CC)N(C)C(=O)[C@@H]2CCN2C(=O)[C@H](C)N(C)C1=O [Compound 1684] ([NMeL]I[NMeA][Aze][NMeI][Sar][hPhe(3-Cl-4-CF3)]P[Ac5c][NMeV][NMeD]-Piperidide; lactam N-11) | 4.3 | 100 to 500 |
| CCCC[C@@H]1NC(=O)[C@H](Cc2cccc(I)c2)NC(=O)CN(C)C(=O)[C@H](Cc2ccc(Cl)cc2)N(C)C(=O)CN(C)C(=O)CN(C)C(=O)[C@H]([C@@H](C)CC)NC(=O)[C@H](CC(C)C)N(C)C(=O)C[C@@H](C(=O)N2CCCCC2)N(C)C(=O)[C@H](CC(C)C)NC(=O)[C@H](Cc2ccc(F)cc2)N(C)C1=O [Compound 997] ([NMeL]I[Sar][Sar][NMePhe(4-Cl)][Sar][Phe(3-I)][Nle][NMePhe(4-F)]L[NMeD]-Piperidide; lactam N-11) | 24 | 100 to 500 |
| CC[C@H](C)[C@@H]1NC(=O)[C@H](CC(C)C)N(C)C(=O)C[C@@H](C(=O)N2CCCCC2)N(C)C(=O)[C@H](C(C)C)N(C)C(=O)C2(CCCCC2)NC(=O)[C@@H]2CCCN2C(=O)[C@H](CCc2ccc(C(F)(F)F)c(Cl)c2)NC(=O)CN(C)C(=O)[C@H](CC2CCCCC2)N(C)C(=O)CN(C)C(=O)CN(C)C1=O [Compound 600] ([NMeL]I[Sar][Sar][NMeCha][Sar][hPhe(3-Cl-4-CF3)]P[Ac6c][NMeV][NMeD]-Piperidide; lactam N-11) | 4.5 | 100 to 500 |
| CC[C@H](C)[C@@H]1NC(=O)[C@H](CC(C)C)N(C)C(=O)C[C@@H](C(=O)N2CCCCC2)N(C)C(=O)[C@H](C2CCCCC2)N(C)C(=O)C2(CCCC2)NC(=O)[C@@H]2CCCN2C(=O)[C@H](CCc2ccc(C(F)(F)F)c(Cl)c2)NC(=O)CN(C)C(=O)[C@H](CC2CC2)N(C)C(=O)CN(C)C(=O)CN(C)C1=O [Compound 234] ([NMeL]I[Sar][Sar][NMeAla(cPr)][Sar][hPhe(3-Cl-4-CF3)]P[Ac5c][NMeChg][NMeD]-Piperidide; lactam N-11) | 2.1 | > 500 |
| CC[C@H](C)[C@@H]1NC(=O)[C@H](CC(C)C)N(C)C(=O)C[C@@H](C)N(C)C(=O)[C@H](C(C)C)N(C)C(=O)C2(CCCC2)NC(=O)[C@@H]2CCCN2C(=O)[C@H](CCc2ccc(C(F)(F)F)c(Cl)c2)NC(=O)CN(C)C(=O)[C@H](CC2CCCCC2)N(C)C(=O)CN(C)C(=O)CN(C)C1=O [Compound 608] (cyclo([Ac5c][NMeV][NMedβ3hAla][NMeL]I[Sar][Sar][NMeCha][Sar][hPhe(3-Cl-4-CF3)]P)) | 5.9 | 50 to 100 |
| CC[C@H](C)[C@@H]1NC(=O)[C@H](CC(C)C)N(C)C(=O)C[C@@H](C(=O)N2CCCCC2)N(C)C(=O)[C@H](C(C)C)N(C)C(=O)C2(CCCC2)NC(=O)[C@@H]2CCCN2C(=O)[C@H](CCc2ccc(C(F)(F)F)c(Cl)c2)NC(=O)CN(C)C(=O)[C@H](Cc2ccccc2C(F)(F)F)N(C)C(=O)CN(C)C(=O)CN(C)C1=O [Compound 1579] ([NMeL]I[Sar][Sar][NMePhe(2-CF3)][Sar][hPhe(3-Cl-4-CF3)]P[Ac5c][NMeV][NMeD]-Piperidide; lactam N-11) | 8.2 | 100 to 500 |
| CC(C)C[C@H]1C(=O)N[C@@H](C2CCC2)C(=O)N(C)CC(=O)N(C)CC(=O)N(C)[C@@H](CC2CCCCC2)C(=O)N(C)CC(=O)N[C@@H](CCc2ccc(C(F)(F)F)c(Cl)c2)C(=O)N2CCC[C@H]2C(=O)NC2(CCCC2)C(=O)N(C)[C@@H](C2CCCCC2)C(=O)N(C)[C@H](C(=O)N2CCOCC2)CC(=O)N1C [Compound 1906] ([NMeL][Gly(cBu)][Sar][Sar][NMeCha][Sar][hPhe(3-Cl-4-CF3)]P[Ac5c][NMeChg][NMeD]-Morpholide; lactam N-11) | 0.55 | 50 to 100 |
